Values of other authors in patent publication US20090041869A1, “METHOD OF REDUCING INSECT RESISTANT PESTS IN […]” (PIONEER HI-BRED INTERNATIONAL, INC., priority 2004, published 2009).
“Also recorded” adds a separate entry of the source. Where two headings read alike, the source gives them in different places.

Test system: European corn borer, Ostrinia nubilalis
Conditions: Cry 1F selected colony vs unselected colony, likelihood ratio test at α=0.05

| Substance | cross resistance of the Cry 1F selected strain to other Bt toxins | cross resistance of the Cry 1F selected strain to other Bt toxins (listed as Cry1 Ab) |
| --- | --- | --- |
| Cry 1Ab: Bt crystal protein toxin assessed for cross resistance | No cross resistance; also recorded: does not lead to loss of susceptibility | no cross resistance |
| Cry 1Ac: Bt crystal protein toxin assessed for cross resistance | 6.89 fold | – |
